ChEMBL document CHEMBL1158480, “In silico prediction of volume of distribution in human using linear and nonlinear models on a 669 compound data set” (J Med Chem, 2009)

Assays:
[1] = Volume of distribution at steady state in human dosed 1 hr iv infusion; details: in vivo
[2] = Volume of distribution at steady state in human at 2.5 mg, iv administered as bolus dose; format: ADME, organism-based; details: in vivo, read-out: Vdss
[3] = Volume of distribution at steady state in human at 15 ng/kg/min, iv administered 150 mins infusion; format: ADME, organism-based; details: in vivo, read-out: Vdss
[4] = Volume of distribution at steady state in human at 10 mg, iv; format: ADME, organism-based; details: in vivo, read-out: Vdss
[5] = Volume of distribution at steady state in human at 1 mg/kg; format: ADME, organism-based; set-up: dose 1 mg/kg; details: in vivo, read-out: Vdss
[6] = Volume of distribution at steady state in human at 50 mg, iv; format: ADME, organism-based; details: in vivo, read-out: Vdss
[7] = Volume of distribution at steady state in human at 2.8 mg, iv; format: ADME, organism-based; details: in vivo, read-out: Vdss
[8] = Volume of distribution at steady state in human administered 1 to 12 g doses with 2 to 3.5 hrs iv infusion; format: ADME, organism-based; details: in vivo, read-out: Vdss
[9] = Volume of distribution at steady state in human at 25 mg, iv; format: ADME, organism-based; details: in vivo, read-out: Vdss
[10] = Volume of distribution at steady state in human; details: in vivo
[11] = Volume of distribution at steady state in human at 1 mg/kg, iv administered 20 mins infusion; format: ADME, organism-based; set-up: dose 1 mg/kg, route intravenous; details: in vivo, read-out: Vdss
[12] = Volume of distribution at steady state in human at 0.2 mg, iv; format: ADME, organism-based; details: in vivo, read-out: Vdss
[13] = Volume of distribution at steady state in human at 0.1 mg/kg administered 15 mins infusion; format: ADME, organism-based; set-up: dose 0.1 mg/kg; details: in vivo, iv, read-out: Vdss
[14] = Total clearance in human at 0.1 mg/kg administered 15 mins infusion; format: ADME, organism-based; set-up: dose 0.1 mg/kg; details: in vivo, iv
[15] = Clearance in human given 31 administration across 6 doses 2.5 to 25 mg administered 30 mins infusion each dose separated by 13 days; format: ADME, organism-based; details: in vivo, iv
[16] = Mean residence time in human administered three way cross over study in 11, 10 and 12 healthy subjects at 5, 10, 15 mg dose respectively as 1 hr infusion; format: ADME, organism-based; details: in vivo, intravenous
[17] = Mean residence time in human given 31 administration across 6 doses 2.5 to 25 mg administered 30 mins infusion each dose separated by 13 days; format: ADME, organism-based; details: in vivo, iv
[18] = Half life in human given 31 administration across 6 doses 2.5 to 25 mg administered 30 mins infusion each dose separated by 13 days; format: ADME, organism-based; details: in vivo, iv
[19] = Clearance in human administered three way cross over study in 11, 10 and 12 healthy subjects at 5, 10, 15 mg dose respectively as 1 hr infusion; format: ADME, organism-based; details: in vivo, intravenous
[20] = Half life in human administered three way cross over study in 11, 10 and 12 healthy subjects at 5, 10, 15 mg dose respectively as 1 hr infusion; format: ADME, organism-based; details: in vivo, intravenous
[21] = Volume of distribution in human at 100 mg administered 30 mins infusion; format: ADME, organism-based; details: in vivo, iv
[22] = Volume of distribution at steady state in human at 0.149 mg/kg, iv; format: ADME, organism-based; set-up: dose 0.149 mg/kg, route intravenous; details: in vivo, read-out: Vdss
[23] = Volume of distribution at steady state in human at 150 mg, iv; format: ADME, organism-based; details: in vivo, read-out: Vdss
[24] = Half life in human at 2 mg, iv; format: ADME, organism-based; details: in vivo
[25] = Clearance in human at 2 mg, iv; format: ADME, organism-based; details: in vivo
[26] = Mean residence time in human at 2 mg, iv; format: ADME, organism-based; details: in vivo
[27] = Volume of distribution at steady state in human at 5 mg, iv; format: ADME, organism-based; details: in vivo, read-out: Vdss
[28] = Volume of distribution at steady state in human administered three sequential 4-h infusion at 1, 5 and 15 mg/hr; format: ADME, organism-based; details: in vivo, iv, read-out: Vdss
[29] = Volume of distribution at steady state in human at 130 mg administered 90 mins infusion; format: ADME, organism-based; details: in vivo, iv, read-out: Vdss
[30] = Volume of distribution at steady state in human at 100 mg, iv; format: ADME, organism-based; details: in vivo, read-out: Vdss
[31] = Clearance in human at 200 ug; format: ADME, organism-based; details: in vivo

## C[C@]12CC[C@@H]3c4ccc(O)cc4C[C@@H](CCCCCCCCC[S+]([O-])CCCC(F)(F)C(F)(F)F)[C@H]3[C@@H]1CC[C@@H]2O (stereo partly drawn) [FULVESTRANT]
[1]
  Vd at 1 h: 4.15 L/kg

## OCCN1CCN(CCCN2c3ccccc3Sc3ccc(C(F)(F)F)cc32)CC1 [FLUPHENAZINE]
[2]
  Vd: 2.9 L/kg

## CCCCC[C@H](O)CC[C@@H]1[C@H]2Cc3cccc(OCC(=O)O)c3C[C@H]2C[C@H]1O [TREPROSTINIL]
[3]
  Vd: 0.23 L/kg

## CN(c1nc2ccccc2s1)C1CCN(CC(O)COc2ccc(F)cc2)CC1 (stereo not drawn) [SABELUZOLE]
[4]
  Vd: 5.5 L/kg

## CC(C)(N)CC(=O)N[C@@H]1CCc2ccccc2N(Cc2ccc(-c3ccccc3-c3nnn[nH]3)cc2)C1=O
[5]
  Vd: 0.2 L/kg

## COC(=O)c1cnc2n1CCc1ccccc1C2=C1CCN(CCc2ccc(OCc3ccc4ccccc4n3)cc2)CC1
[6]
  Vd: 6.03 L/kg

## CC(C)Oc1ccccc1N1CCN(Cc2cccc(C(=O)N3CCCCC3)c2)CC1 [MAZAPERTINE]
[7]
  Vd: 1.54 L/kg

## Nc1ccn([C@@H]2O[C@H](CO)[C@@H](O)[C@@H]2O)c(=O)n1 [CYTARABINE]
[8]
  Vd: 0.67 L/kg

## CC(=O)CC(c1ccc([N+](=O)[O-])cc1)c1c(O)c2ccccc2oc1=O (stereo not drawn) [ACENOCOUMAROL]
[9]
  Vd: 0.24 L/kg

## C[C@@H]1[C@H](O)[C@@H](C)/C=C/C=C/C=C/C=C/C=C/C=C/C=C/[C@H](O[C@@H]2O[C@H](C)[C@@H](O)[C@H](N)[C@@H]2O)C[C@@H]2O[C@](O)(C[C@@H](O)C[C@@H](O)[C@H](O)CC[C@@H](O)C[C@@H](O)CC(=O)O[C@H]1C)C[C@H](O)[C@H]2C(=O)O [AMPHOTERICIN B]
[10]
  Vd: 0.62 L/kg

## CC(=O)N(CCC(CCN1CCCCC1)(C(N)=O)c1ccccc1Cl)C(C)C (stereo not drawn) [BIDISOMIDE]
[11]
  Vd: 2.6 L/kg

## C[C@@H]1CN([C@H]2CC[C@](C#N)(c3ccc(F)cc3)CC2)CC[C@]1(C(=O)O)c1ccccc1 [LEVOCABASTINE]
[12]
  Vd: 1.17 L/kg

## Cc1nccn1CCC(C(N)=O)(c1ccccc1)c1ccccc1 [IMIDAFENACIN]
[13]
  Vd: 1.51 L/kg
[14]
  clearance: 492 mL/min

## CN(c1nc2ccccc2s1)C1CCN(C[C@H](O)COc2ccc(F)c(F)c2)CC1 [LUBELUZOLE]
[15]
  clearance: 1.54 mL/min/kg
[16]
  MRT: 28.7 h
[17]
  MRT: 23.3 h
[18]
  half-life: 19.8 h
[19]
  clearance: 1.8 mL/min/kg
[20]
  half-life: 23.5 h

## CC1(C)[C@@H](O[C@H]2O[C@H](C(=O)O)[C@@H](O)[C@H](O)[C@H]2O[C@H]2O[C@@H](C(=O)O)[C@H](O)[C@@H](O)[C@@H]2O)CC[C@]2(C)[C@H]3C(=O)C=C4[C@@H]5C[C@@](C)(C(=O)O)CC[C@]5(C)CC[C@@]4(C)[C@]3(C)CC[C@@H]12 [ISOGLYCIRRHIZINATE]
[21]
  Vd: 0.05 L/kg

## Cc1nc(=O)c(C#N)c(NCc2cccnc2)[nH]1 [PELRINONE]
[22]
  Vd: 0.39 L/kg

## COCCOC[C@H](CC1(C(=O)N[C@H]2CC[C@@H](C(=O)O)CC2)CCCC1)C(=O)O [CANDOXATRILAT]
[23]
  Vd: 0.25 L/kg

## CCc1nc2c(N)nc3ccccc3c2n1CCCCNS(C)(=O)=O [CPG-52852]
[24]
  half-life: 7.1 h
[25]
  clearance: 7.7 mL/min/kg
[26]
  MRT: 4.7 h

## Cc1nc2sccn2c(=O)c1CCN1CCC(=C(c2ccc(F)cc2)c2ccc(F)cc2)CC1 [RITANSERIN]
[27]
  Vd: 1.41 L/kg

## COc1ccccc1Oc1c(NS(=O)(=O)c2ccc(C)cn2)nc(-c2ccnc(-c3nnn[nH]3)c2)nc1OCCO [CLAZOSENTAN]
[28]
  Vd: 0.23 L/kg

## O=C(O)c1ccc(-n2nc(-c3ccccc3O)nc2-c2ccccc2O)cc1 [DEFERASIROX]
[29]
  Vd: 0.2 L/kg

## CO[C@H]1C[C@H](O[C@H]2[C@H](C)[C@@H](O[C@@H]3O[C@H](C)C[C@H](N(C)C)[C@H]3O)[C@@H](C)C[C@@]3(CO3)C(=O)[C@H](C)[C@@H](O)[C@@H](C)[C@@H](C)OC(=O)[C@@H]2C)O[C@@H](C)[C@@H]1O [OLEANDOMYCIN]
[10]
  Vd: 0.77 L/kg

## O=C(O)CCCCO/N=C(/c1cccnc1)c1cccc(C(F)(F)F)c1 [RIDOGREL]
[30]
  Vd: 0.43 L/kg

## CC(=O)Nc1ccc(C2=NNC(=O)C[C@H]2C)cc1
[10]
  Vd: 2.38 L/kg
[31]
  clearance: 33.3 mL/min
